Reference: patent US10464977B2 (University of Maryland, Baltimore, priority 2016, dated 2019)
Residues, ends and D or L forms follow the SMILES beside them. No end group written: not given here.

Key:
[1] = test system: C. albicans cells (ATCC 90028); experiment: Degradation of peptides by whole C. albicans cells, gel densitometry; assay type: in vitro ADME; details: 1×10^9 cells mL^−1, 150 μg mL^−1 peptide, 2 h, 37° C., 100 mM NaPB
Procedure: For degradation with C. albicans, a single colony of the ATCC 90028 strain (American Type Culture Collection) was used to inoculate YPD. The culture was grown overnight, subcultured, and grown to an optical density of 1-1.2 at OD600. All incubations were done at 30° C. The cells were washed three times in 100 mM NaPB and diluted to 2×10^9 cells mL^−1. Equal volumes of cells and peptides were mixed and incubated for 2 h at 37° C. The cells were removed by centrifugation, and the supernatants were mixed with tricine sample buffer and boiled for 10 min. The samples were then run on gels and analyzed as described above for degradation by the Saps. Three biological replicates were performed.
After observing the effect of residue modifications on the cleavage of Hst-5 by the purified recombinant Saps, whether incubation of the peptides with whole C. albicans cells expressing Saps (rather than Saps produced recombinantly) would yield similar results was evaluated. Hst-5 and the synthetic peptides were incubated with C. albicans cells for 2 h at 37° C. in 100 mM NaPB. The high ionic strength of this buffer prevents internalization of the peptides by C. albicans (4) allowing analysis of degradation of the peptides without the confounding effects of peptide internalization, which would reduce the amount of peptide in the reaction buffer.

Sap9 [2] = target: T1, Sap9 (Candida albicans, UniProt Q59SU1); details: 3.13 μg mL^−1 Sap9
Procedure: (§1) The cleavage sites of the Saps and the abundance of the fragments produced by cleavage were determined using mass spectrometry. […] The binding solution was 0.1% formic acid, and the releasing solution was 0.1% formic acid/60% acetonitrile (ACN). To ensure equal flow-through volume of each sample, 18 μL of desalted sample was aliquoted and 1 μL of the four-amino acid peptide MRFA at 0.1 mg mL^−1 was added. Samples were manually loaded through loop injection at 25 μL min^−1 with 40% ACN/0.1% formic acid. Mass spectra were acquired with a Thermo Scientific Orbitrap Fusion Lumos Tribrid mass spectrometer with data-dependent analysis at a 5 s cycle time. Manufacturer recommended source parameters for a flow rate of 25 μL min^−1 were applied. Full scan mass spectra of m z^−1 350-1550 were acquired in the orbitrap at R=120000 (m z^−1 200) with fluoranthene ion as the internal calibrant. CID and ETD fragments of the most intense ions (z>1) were recorded with the orbitrap at R=60000 (m z^−1 200). Dynamic exclusion was set at 30 s.
(§2) The molecular weights of the peptides and their fragments were calculated from full scan MS spectra using the XTract program in the XCalibur software (Thermo Scientific). MS/MS spectra from ETD and CID fragmentation were processed using Proteome Discoverer (V2.1) with Prosight PD node to identify peptides and their degradation products. […] Intensities of identified peptides and their degradation products relative to the internal standard MRFA were obtained from the deconvoluted full scan mass spectra.
(§3) After incubation of the peptides with each Sap, the four-amino-acid peptide MRFA was added as an internal standard, and samples were directly injected into the mass spectrometer.

Sap2 [3] = target: T2, Sap2 (Candida albicans, UniProt P0DJ06); experiment: in vitro; details: for degradation by Sap2 (in words): 6.25 μg mL^−1 Sap2, 150 μg mL^−1 peptide; for degradation by Sap2 (in words) / intact peptide remaining after incubation with higher Sap2 concentration: 2 h, 37° C.; for intact peptide remaining after incubation with higher Sap2 concentration: 18 μg mL^−1 Sap2, 150 μg mL^−1 peptide
Procedure: (§4) Experiments were done in 1 mM NaPB. The mixtures were incubated at 37° C. for 2 h, and NaPB with no Sap was used as a control. After the incubation, the samples were mixed with tricine sample buffer (without Coomassie Blue G-250, except in control samples) containing β-mercaptoethanol and boiled for 5 min at 100° C. to inactivate the proteases. The degraded and non-degraded peptides were separated by gel electrophoresis in 10-20% Tris-tricine gels (Bio-Rad), and the gels were then fixed in a 10% acetic acid/40% methanol/50% water mixture for 30 min. The fixed gels were stained with Bio-Safe Coomassie stain (Bio-Rad) for 1 h and washed with fresh water three times, once overnight and then twice for at least 2 h each time. The gels were imaged on a Chemidoc imager (Bio-Rad), and densitometric analysis was done with Image Lab software (Bio-Rad). […] Three replicates of the assay were done.
(§5) To measure the antifungal activity of the peptides following degradation by the Saps, the antifungal activity assay was performed as described above, except the peptides were first exposed to Saps. The peptide fragments were prepared by incubating each peptide (150 μg mL^−1) with 6.25 μg mL^−1 Sap9 or 18 μg mL^−1 Sap2 for 2 h at 37° C. The enzymes were then inactivated by heating at 100° C. for 5 min. As controls, each peptide was also incubated with only NaPB buffer. Samples were then stored at −20° C. until use in the antifungal activity assay.
(§6) The intact peptide was then separated from the degradation products using gel electrophoresis and quantified the level of degradation using densitometric analysis of Coomassie-stained gels.
(§7) To amplify differences in antifungal activity due to degradation by the Saps, the concentrations of the Saps was increased by at least two-fold compared to the concentrations used for the gel electrophoresis data in FIGS. 1A-1D (to 6.25 μg mL^−1 for Sap9 and 18 μg mL^−1 for Sap2).

Sap9 [4] = target: T1, Sap9; experiment: in vitro; details: Candida albicans, isolated enzyme
Procedure: as §4, §5, §6, §7

Sap2 [5] = target: T2, Sap2; details: 6.25 μg mL^−1 Sap2
Procedure: as §1, §2, §3

Sap2 [6] = experiment: 6.25 μg mL^−1 Sap2 in 1 mM NaPB; details: C. albicans, 37° C., up to 2 h
Sap9 [7] = experiment: 3.13 μg mL^−1 Sap9 in 1 mM NaPB; details: C. albicans, 37° C., up to 2 h
Sap2 [8] = experiment: 18 μg mL^−1 Sap2 in 1 mM sodium phosphate buffer (NaPB); details: C. albicans, 37° C., up to 2 h

T1 sequence (Q59SU1 18-520): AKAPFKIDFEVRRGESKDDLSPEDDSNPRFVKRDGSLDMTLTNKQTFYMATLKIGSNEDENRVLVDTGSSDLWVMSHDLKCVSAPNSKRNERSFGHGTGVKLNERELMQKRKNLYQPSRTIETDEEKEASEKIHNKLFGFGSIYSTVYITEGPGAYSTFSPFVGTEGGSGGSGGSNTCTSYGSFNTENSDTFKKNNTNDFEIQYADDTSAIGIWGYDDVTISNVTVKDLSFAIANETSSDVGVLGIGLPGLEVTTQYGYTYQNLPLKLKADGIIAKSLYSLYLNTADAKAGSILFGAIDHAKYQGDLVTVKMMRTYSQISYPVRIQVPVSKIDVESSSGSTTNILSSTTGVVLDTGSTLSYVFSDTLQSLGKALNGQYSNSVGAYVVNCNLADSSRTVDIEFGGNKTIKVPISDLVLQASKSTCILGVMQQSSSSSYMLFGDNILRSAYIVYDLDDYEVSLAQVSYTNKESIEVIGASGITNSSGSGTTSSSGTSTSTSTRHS
T2 sequence (P0DJ06 57-398): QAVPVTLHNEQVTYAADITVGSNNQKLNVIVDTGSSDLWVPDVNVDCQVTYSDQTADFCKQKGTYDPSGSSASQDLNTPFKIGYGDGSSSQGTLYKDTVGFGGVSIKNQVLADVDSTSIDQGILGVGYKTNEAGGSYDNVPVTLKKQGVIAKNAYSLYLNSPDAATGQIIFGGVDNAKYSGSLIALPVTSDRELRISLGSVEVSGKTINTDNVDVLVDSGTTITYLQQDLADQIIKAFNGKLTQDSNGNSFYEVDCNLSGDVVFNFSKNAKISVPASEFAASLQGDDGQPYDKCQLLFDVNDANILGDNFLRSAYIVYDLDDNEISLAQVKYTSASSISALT

Compound: CC(C)C[C@H](NC(=O)[C@H](CCCNC(=N)N)NC(=O)[C@H](CCCCN)NC(=O)[C@H](Cc1ccc(O)cc1)NC(=O)CNC(=O)[C@H](Cc1c[nH]cn1)NC(=O)[C@H](Cc1c[nH]cn1)NC(=O)[C@H](CCCNC(=N)N)NC(=O)[C@H](CCCCN)NC(=O)[C@H](C)NC(=O)[C@H](Cc1c[nH]cn1)NC(=O)[C@H](CO)NC(=O)[C@@H](N)CC(=O)O)C(=O)N[C@@H](Cc1ccccc1)C(=O)N[C@@H](Cc1c[nH]cn1)C(=O)N[C@@H](CCC(=O)O)C(=O)N[C@@H](CCCCN)C(=O)N[C@@H](Cc1c[nH]cn1)C(=O)N[C@@H](Cc1c[nH]cn1)C(=O)N[C@@H](CO)C(=O)N[C@@H](Cc1c[nH]cn1)C(=O)N[C@@H](CCCNC(=N)N)C(=O)NCC(=O)N[C@@H](Cc1ccc(O)cc1)C(=O)O [Peptide K13L] (H-DSHAKRHHGYKRLFHEKHHSHRGY-OH; N-terminus and C-terminus assumed)
- degradation by C. albicans cells (in words) [1]: increase in degradation compared to the parent Hst-5
- mass spectrometry signal of intact peptide versus fragments, Sap9 (Sap9 [2]): apparent shift in cleavage site preference compared to the parent Hst-5

Compound: CC(C)C[C@H](NC(=O)[C@H](CCC(=O)O)NC(=O)[C@H](Cc1c[nH]cn1)NC(=O)[C@H](Cc1ccccc1)NC(=O)[C@H](CCCCN)NC(=O)[C@H](CCCNC(=N)N)NC(=O)[C@H](CCCCN)NC(=O)[C@H](Cc1ccc(O)cc1)NC(=O)CNC(=O)[C@H](Cc1c[nH]cn1)NC(=O)[C@H](Cc1c[nH]cn1)NC(=O)[C@H](CCCNC(=N)N)NC(=O)[C@H](CCCCN)NC(=O)[C@H](C)NC(=O)[C@H](Cc1c[nH]cn1)NC(=O)[C@H](CO)NC(=O)[C@@H](N)CC(=O)O)C(=O)N[C@@H](Cc1c[nH]cn1)C(=O)N[C@@H](Cc1c[nH]cn1)C(=O)N[C@@H](CO)C(=O)N[C@@H](Cc1c[nH]cn1)C(=O)N[C@@H](CCCNC(=N)N)C(=O)NCC(=O)N[C@@H](Cc1ccc(O)cc1)C(=O)O [Peptide K17L] (H-DSHAKRHHGYKRKFHELHHSHRGY-OH; N-terminus and C-terminus assumed)
- degradation by Sap2 (in words) (Sap2 [3]): No detectable degradation
- intact peptide remaining after incubation with higher Sap2 concentration (Sap2 [3]): over 70%
- remaining at 2 h, 150 μg mL^−1 (Sap9 [4]): 77%
- cleavage at the C-terminal side of K17 by Sap2 (mass spectrometry) (Sap2 [5]): still cleaved
- cleavage on the C-terminal side of K17 by Sap9 (mass spectrometry) (Sap9 [2]): neither K17R nor K17L showed significant cleavage at this site
- mass spectrometry signal of intact peptide versus fragments, Sap9 (Sap9 [2]): the most intense signal came from the intact peptide

Compound: DSHAKRHHGYRRKFHERHHSHRGY
- not cleaved (Sap2 [6]): no observable degradation
- not cleaved (Sap9 [7]): no observable degradation

Compound: C[C@H](NC(=O)[C@H](Cc1cnc[nH]1)NC(=O)[C@H](CO)NC(=O)[C@@H](N)CC(=O)O)C(=O)N[C@@H](CCCCN)C(=O)N[C@@H](CCCNC(=N)N)C(=O)N[C@@H](Cc1cnc[nH]1)C(=O)N[C@@H](Cc1cnc[nH]1)C(=O)NCC(=O)N[C@@H](Cc1ccc(O)cc1)C(=O)N[C@@H](CCCCN)C(=O)N[C@@H](CCCNC(=N)N)C(=O)N[C@@H](CCCCN)C(=O)N[C@@H](Cc1ccccc1)C(=O)N[C@@H](Cc1cnc[nH]1)C(=O)N[C@@H](CCC(=O)O)C(=O)N[C@@H](CCCCN)C(=O)N[C@@H](Cc1cnc[nH]1)C(=O)N[C@@H](Cc1cnc[nH]1)C(=O)N[C@@H](CO)C(=O)N[C@@H](Cc1cnc[nH]1)C(=O)N[C@@H](CCCNC(=N)N)C(=O)NCC(=O)N[C@@H](Cc1ccc(O)cc1)C(=O)O [Hst-5, reference compound]
- remaining at 2 h, 150 μg mL^−1 (Sap2 [3]; Candida albicans, isolated enzyme): 61%
- remaining at 2 h, 150 μg mL^−1 (Sap9 [4]): 47%
- mass spectrometry signal of intact peptide versus fragments, Sap2 (Sap2 [5]): intact peptide having the highest signal
- mass spectrometry signal of intact peptide versus fragments, Sap9 (Sap9 [2]): signal for the degradation fragment containing amino acids 1-17 of Hst-5 was higher than the intact peptide

Compound: C[C@H](NC(=O)[C@H](Cc1c[nH]cn1)NC(=O)[C@H](CO)NC(=O)[C@@H](N)CC(=O)O)C(=O)N[C@@H](CCCCN)C(=O)N[C@@H](CCCNC(=N)N)C(=O)N[C@@H](Cc1c[nH]cn1)C(=O)N[C@@H](Cc1c[nH]cn1)C(=O)NCC(=O)N[C@@H](Cc1ccc(O)cc1)C(=O)N[C@@H](CCCCN)C(=O)N[C@@H](CCCNC(=N)N)C(=O)N[C@@H](CCCCN)C(=O)N[C@@H](Cc1ccccc1)C(=O)N[C@@H](Cc1c[nH]cn1)C(=O)N[C@@H](CCC(=O)O)C(=O)N[C@@H](CCCNC(=N)N)C(=O)N[C@@H](Cc1c[nH]cn1)C(=O)N[C@@H](Cc1c[nH]cn1)C(=O)N[C@@H](CO)C(=O)N[C@@H](Cc1c[nH]cn1)C(=O)N[C@@H](CCCNC(=N)N)C(=O)NCC(=O)N[C@@H](Cc1ccc(O)cc1)C(=O)O [Peptide K17R] (H-DSHAKRHHGYKRKFHERHHSHRGY-OH; N-terminus and C-terminus assumed)
- degradation by Sap2 (in words) (Sap2 [3]): No detectable degradation
- intact peptide remaining after incubation with higher Sap2 concentration (Sap2 [3]): over 90%
- remaining at 2 h, 150 μg mL^−1 (Sap9 [4]): 82%
- cleavage at the C-terminal side of K17 by Sap2 (mass spectrometry) (Sap2 [5]): still cleaved
- cleavage on the C-terminal side of K17 by Sap9 (mass spectrometry) (Sap9 [2]): neither K17R nor K17L showed significant cleavage at this site
- mass spectrometry signal of intact peptide versus fragments, Sap9 (Sap9 [2]): the most intense signal came from the intact peptide

Compound: DSHAKRHHGYKRKFHELHHSHRGY
- cleaved bond (Sap2 [6]): L17-H18

Compound: DSHAKRHHGYKRKFHERHHSHRGY
- cleaved bond (Sap2 [6]): R17-H18
- not cleaved (Sap2 [8]): over 90% remaining
